Calls of active or inactive are those of the source. No cut-off for these calls is given here.

A word on the IC50: it is the midpoint of a concentration-inhibition curve.

The subject of assay [1] is HUVEC. Put plainly: cells. The following applies: Homo sapiens, 48 h.
Description: Antiproliferative activity against HUVEC after 48 hrs by MTT assay
Assay [2] deals with A2780. The experiment in a line: Antiproliferative activity against human A2780 cells after 48 hrs by MTT assay. The following applies: A2780, 48 h. On the technique in general: Tetrazolium dyes change colour on reduction, which living cells bring about.
For assay [3], the system named is HeLa. Put plainly: cells. The following applies: Homo sapiens, 48 h.
The nature of assay [4]: Antiproliferative activity against human A2780/CDDP cells after 48 hrs by MTT assay.
In assay [5] the test system is A549. The experiment in a line: cells. As to conditions: Homo sapiens, A549, 48 h.
Assay [6] relates to MDA-MB-231. The experiment in a line: Antiproliferative activity against gemcitabine-resistant human MDA-MB-231 cells after 48 hrs by MTT assay. As to conditions: MDA-MB-231, 48 h.
In assay [7] the test system is MDA-MB-231. Put plainly: Antiproliferative activity against human MDA-MB-231 cells after 48 hrs by MTT assay. The following applies: MDA-MB-231, 48 h.
A short description of assay [8]: Antiproliferative activity against human T29 cells after 48 hrs by MTT assay. The following applies: T29, 48 h.
The subject of assay [9] is A2780. Put plainly: Induction of nitric oxide generation in human A2780 cells at 100 to 1000 nM after 1 hr by DAF-FM DA staining-based assay. Format: functional, cell-based.
Assay [10] concerns A2780. Put plainly: Induction of nitric oxide generation in human A2780 cells at 100 uM after 150 mins by Griess assay. Format: functional. A general note: Griess reagent forms a coloured azo dye with nitrite.

Consider `Cc1cc(=O)oc2cc(NCCOc3no[n+]([O-])c3S(=O)(=O)c3ccccc3)ccc12`, for which the IC50 was 3.04 µM in assay [1]; 2.45 µM in assay [2]; 1.99 µM in assay [3]; 5.45 µM in [4]; 1.44 µM in [5].

On to `O=C(COc1ccc2ccc(=O)oc2c1)OCCOc1no[n+]([O-])c1S(=O)(=O)c1ccccc1`, for which the IC50 in assay [1], in assay [2], in [3], in assay [4] and in assay [5] was > 20 µM in each case.

As for `CCc1cc(=O)c2ccc(Oc3no[n+]([O-])c3S(=O)(=O)c3ccccc3)cc2o1`, the IC50 in assay [1] is 3.35 µM; in assay [2] it was 0.13 µM; in assay [3], > 20 µM; in assay [4], 2.99 µM; in assay [5] it was 3.29 µM.

In the case of `Nc1ccn([C@@H]2O[C@H](CO)[C@@H](O)C2(F)F)c(=O)n1` [GEMCITABINE], the IC50 is > 10 µM in [6] and 0.025 µM in [7].

Regarding `Cc1cc(=O)oc2cc(OCC(=O)OCCOc3no[n+]([O-])c3S(=O)(=O)c3ccccc3)ccc12`, the IC50 in assay [1] was > 20 µM; in [2] it was 3.65 µM; in [3] it was 4.31 µM; in assay [4] it was 7.36 µM; in [5] it was 6.92 µM.

Take `Cc1cc(=O)oc2cc(Oc3no[n+]([O-])c3S(=O)(=O)c3ccccc3)ccc12`: the IC50 in [1] was 5.43 µM; in assay [2], 2.99 µM; in [3], > 20 µM; in assay [4] it was 3.15 µM; in assay [5], 5.55 µM.

Turning to `CCc1cc(=O)c2ccc(OCCCOc3no[n+]([O-])c3S(=O)(=O)c3ccccc3)cc2o1`, the IC50 in [1] turned out to be 0.35 µM; in assay [2], 0.29 µM; in [3], 0.19 µM; in assay [4], 0.89 µM; in assay [5] it was 0.4 µM.

`COCCOc1no[n+]([O-])c1S(=O)(=O)c1ccccc1`: the IC50 in [8] and in [2] was > 2 µM each time.

As to `Cc1cc(=O)oc2cc(SCCOc3no[n+]([O-])c3S(=O)(=O)c3ccccc3)ccc12`, the IC50 stood at 0.22 µM in assay [1]; 0.036 µM in assay [2]; 0.024 µM in assay [3]; 0.14 µM in [4]; 0.12 µM in assay [5].

Turning to `O=S(=O)(c1ccccc1)c1no[n+]([O-])c1S(=O)(=O)c1ccccc1`, the IC50 in [1] came to 4.33 µM; in assay [2] it was 0.88 µM; in assay [3] it was 1.45 µM; in assay [4], 0.89 µM; in assay [5] it was 2.35 µM.

Take `Cc1cc(=O)oc2cc(OCCCCOc3no[n+]([O-])c3S(=O)(=O)c3ccccc3)ccc12`: the IC50 in assay [1] amounted to 0.25 µM; in assay [2] it was 0.66 µM; in [3] it was 0.32 µM; in assay [4], 0.99 µM; in assay [5], 0.65 µM.

With `CCOC(=O)N1CCN(/[N+]([O-])=N/Oc2ccc([N+](=O)[O-])cc2[N+](=O)[O-])CC1`, the IC50 was found to be 5.39 µM in [1]; 0.63 µM in [2]; 3.56 µM in [3]; 1.05 µM in assay [4]; 1.26 µM in [5]. Also, the result in assay [9] was Active. In assay [10], this compound showed an Activity of 48 µM.

As to `Cc1cc(=O)oc2cc(Sc3cccc(Cl)n3)ccc12`, the IC50 in assay [1] was 5.89 µM; in assay [2], 1.35 µM; in assay [3], 1.48 µM; in assay [4] it was 1 µM; in [5], 3.25 µM. In assay [10], the outcome was inactive.

`Cc1cc(=O)oc2cc(O)ccc12` [HYMECROMONE]: the IC50 in [8] and in assay [2] was > 2 µM in each case.

`Cc1cc(=O)oc2c(C)c(Oc3no[n+]([O-])c3S(=O)(=O)c3ccccc3)ccc12`: the IC50 in assay [1] was > 20 µM; in assay [2] it was 9.35 µM; in assay [3] it was > 20 µM; in assay [4], > 20 µM; in [5], 11.7 µM.

As for `Cc1cc(=O)oc2cc(N(C)CCOc3no[n+]([O-])c3S(=O)(=O)c3ccccc3)ccc12`, the IC50 in [1] stood at 0.89 µM; in assay [2], 0.95 µM; in assay [3], 0.51 µM; in assay [4], 2.38 µM; in assay [5], 1.02 µM.

With `O=c1ccc2ccc(OCCOc3no[n+]([O-])c3S(=O)(=O)c3ccccc3)cc2o1`, the IC50 stood at 0.37 µM in [1]; 0.17 µM in assay [2]; 0.11 µM in assay [3]; 0.2 µM in [4]; 0.26 µM in assay [5].

In the case of `CCc1cc(=O)c2ccc(OCCOc3no[n+]([O-])c3S(=O)(=O)c3ccccc3)cc2o1`, the IC50 was found to be 1.03 µM in [1]; 3.33 µM in [2]; 0.83 µM in assay [3]; 2.88 µM in [4]; 5.45 µM in assay [5].

As for `Cc1cc(=O)oc2cc(OCCCOc3no[n+]([O-])c3S(=O)(=O)c3ccccc3)ccc12`, the IC50 in assay [1] worked out at 0.68 µM; in assay [2], 0.35 µM; in assay [3], 0.26 µM; in assay [4], 0.36 µM; in [5], 0.28 µM.

Consider `Cc1cc(=O)oc2c(C)c(OCCOc3no[n+]([O-])c3S(=O)(=O)c3ccccc3)ccc12`, for which the IC50 in assay [1] was determined as 0.097 µM; in assay [2] it was 0.046 µM; in assay [3] it was 0.25 µM; in assay [4], 0.33 µM; in [5] it was 1 µM.

Take `O=c1ccc2ccc(Oc3no[n+]([O-])c3S(=O)(=O)c3ccccc3)cc2o1`: the IC50 in assay [1] is 6.75 µM; in [2], 0.11 µM; in assay [3], 4.55 µM; in assay [4], 3.44 µM; in assay [5], 8.86 µM.

These data come from ChEMBL document CHEMBL3352047, “Hybrids of phenylsulfonylfuroxan and coumarin as potent antitumor agents” (J Med Chem, 2014).
